Measurements reported in patent publication US20130072385A1, “METHODS FOR DELAYING BUD BREAK BY APPLYING ABA ANALOGS” (priority 2011, published 2013).

Legend:
PF-11 nectarine trees [1] = test: Fall foliar spray of PF-11 nectarine trees, fruit number per tree the following spring; format: in vivo; details: 10,000 ppm in 0.1% Brij 98, fall foliar application; June 10
Description: (§1) A study was conducted to determine the effect of spraying nectarine trees with ABA or ABA analogs in the fall on bud break the following spring. Mature PF-11 nectarine trees were sprayed to drip with surfactant alone or surfactant and ABA or ABA analog on Oct. 19, 2009. Trees were sprayed with approximately 500 ml (20.5 grams ABA analog/acre) applied to each of 6 trees per treatment arranged in a randomized complete block design. The following spring bud break on pre-selected branches was monitored.

Seyval Blanc grapevines = test: Soil drench of potted grapevines near the time of bud break, Seyval Blanc; format: in vivo
Description: (§2) A study was conducted to determine the effect of ABA applied to the soil of potted grapevines near the time of bud break. Eco-dormant bare-root Seyval Blanc and Canadice grapevines were purchased from Concord Nurseries, North Collins, N.Y. Vines were planted in pots of Promix potting mixture and held in a 5° C. dark chamber prior to treatment. Plants were moved from the 5° C. chamber to a greenhouse set to 20° C. night/25° C. day with a 12 hour light and 12 hour dark light cycle to promote bud break. One group of 5 plants was treated with 250 ml of 1000 ppm ABA (250 mg) as a soil drench 2 days after moving the vines to warm conditions. Another group of vines was treated 6 days after warming and another group of 5 plants was treated 10 days after warming. With the Seyval Blanc grapevines one group of 5 plants was treated at all 3 timings 2, 6, and 10 days after warming (750 mg total). Another group of 5 vines was not treated and acted as an untreated control. […]

Concord grape vines = test: Spring spray of eco-dormant field grown Concord grape vines, bud break; format: in vivo, Concord grapevines; details: sprayed 2 times in spring
Description: A study was conducted to evaluate the effect of spraying eco-dormant Concord grape vines with ABA or ABA analog plus surfactants on bud break. Mature field grown Concord grape vines were sprayed to runoff 2 times in the spring after pruning and before bud swell. Three replicates of 3 vines each were treated with each treatment solution. Treatments were arranged in a randomized complete block design down a single vineyard row, Bud break was monitored by counting the number of broken buds of the distal 5 buds on 4 proximal canes on the middle vine of each 3 vine replicate. Bud break was only very slightly delayed by any of the treatments compared to the water sprayed control (Table 1).

Canadice grapevines = test: Soil drench of potted grapevines near the time of bud break, Canadice; format: in vivo
Description: as §2

perennial plant = test: Applicants' field studies over several years on perennial plant bud break; format: in vivo; details: even at high levels, at every application time
Description: In order to determine the role ABA had on perennial plant bud break, Applicants conducted field studies for several years. After many experiments.

Concord grapevines = test: Repeated spray of potted Concord grapevines during the bud break period; format: in vivo; details: for Average number of broken buds per vine: 1000 ppm in 0.05% Silwet L77, repeated spray
Description: A study was conducted to determine the effect of spraying Concord grapevines with ABA or ABA analog PBI-429 during bud break. Potted concord grapevines were placed in greenhouse conditions to promote bud break and the vines were repeatedly sprayed with ABA or ABA analog solutions. The vines were sprayed 2, 4, 8, 12 and 14 days after exposure of the vines into bud break promoting temperatures. Bud break was rated 6, 7, 8, 11, 12, 13, 14, 15, 19 and 20 days after vines were placed in warm bud break promoting conditions.

PF-11 nectarine trees [2] = test: Fall foliar spray of PF-11 nectarine trees, bud break the following spring; format: in vivo; details: 10,000 ppm in 0.1% Brij 98, fall foliar application; April 8
Description: as §1

[3] = 1000 ppm soil drench 2 days after warming, evaluated 13 days after warming
[4] = 1000 ppm soil drench 2 days after warming, evaluated 14 days after warming
[5] = 1000 ppm soil drench 2 days after warming, evaluated 15 days after warming
[6] = 1000 ppm soil drench 2 days after warming, evaluated 16 days after warming
[7] = 1000 ppm soil drench 6 days after warming, evaluated 13 days after warming
[8] = 1000 ppm soil drench 6 days after warming, evaluated 14 days after warming
[9] = 1000 ppm soil drench 6 days after warming, evaluated 15 days after warming
[10] = 1000 ppm soil drench 6 days after warming, evaluated 16 days after warming
[11] = 1000 ppm soil drench 10 days after warming, evaluated 13 days after warming
[12] = 1000 ppm soil drench 10 days after warming, evaluated 14 days after warming
[13] = 1000 ppm soil drench 10 days after warming, evaluated 15 days after warming
[14] = 1000 ppm soil drench 10 days after warming, evaluated 16 days after warming

## (S)-5-(1-hydroxy-2,6,6)-trimethyl-4-oxo-2-cyclohexen-1-yl)-3-methyl-(2 Z,4E)-pentadienoic acid [ABA]
PF-11 nectarine trees [1]
  Average number of fruit per tree: 55
Seyval Blanc grapevines; 1000 ppm soil drench 2, 6 and 10 days after warming, evaluated 13 days after warming
  Average number of broken buds per vine: 1.2
Seyval Blanc grapevines; 1000 ppm soil drench 2, 6 and 10 days after warming, evaluated 14 days after warming
  Average number of broken buds per vine: 4.4
Seyval Blanc grapevines; 1000 ppm soil drench 2, 6 and 10 days after warming, evaluated 15 days after warming
  Average number of broken buds per vine: 4.8
Seyval Blanc grapevines; 1000 ppm soil drench 2, 6 and 10 days after warming, evaluated 16 days after warming
  Average number of broken buds per vine: 7.0
Seyval Blanc grapevines; 1000 ppm soil drench 13-16 days before bud break, cultivar not stated (Seyval Blanc and Canadice study)
  Delay of bud break: 3.5 days
Seyval Blanc grapevines; [3]
  Average number of broken buds per vine: 0.4
Seyval Blanc grapevines; [4]
  Average number of broken buds per vine: 2.2
Seyval Blanc grapevines; [5]
  Average number of broken buds per vine: 3.6
Seyval Blanc grapevines; [6]
  Average number of broken buds per vine: 6.8
Seyval Blanc grapevines; [7]
  Average number of broken buds per vine: 0.2
Seyval Blanc grapevines; [8]
  Average number of broken buds per vine: 1.6
Seyval Blanc grapevines; [9]
  Average number of broken buds per vine: 2.6
Seyval Blanc grapevines; [10]
  Average number of broken buds per vine: 6.8
Seyval Blanc grapevines; [11]
  Average number of broken buds per vine: 1.8
Seyval Blanc grapevines; [12]
  Average number of broken buds per vine: 6.0
Seyval Blanc grapevines; [13]
  Average number of broken buds per vine: 8.6
Seyval Blanc grapevines; [14]
  Average number of broken buds per vine: 11.4
Concord grape vines; April 24, 1,000 ppm ABA plus 0.5% Brij 98
  Average percent broken buds: 8%
Concord grape vines; April 24, 1,000 ppm plus 0.5% Pentrabark
  Average percent broken buds: 2%
Concord grape vines; April 24, 10,000 ppm ABA plus 0.5% Brij 98
  Average percent broken buds: 5%
Concord grape vines; April 30, 1,000 ppm ABA plus 0.5% Brij 98
  Average percent broken buds: 13%
Concord grape vines; April 30, 1,000 ppm plus 0.5% Pentrabark
  Average percent broken buds: 13%
Concord grape vines; April 30, 10,000 ppm ABA plus 0.5% Brij 98
  Average percent broken buds: 18%
Canadice grapevines; [3]
  Average number of broken buds per vine: 0
Canadice grapevines; [4]
  Average number of broken buds per vine: 0
Canadice grapevines; [5]
  Average number of broken buds per vine: 0.8
Canadice grapevines; [6]
  Average number of broken buds per vine: 1.2
Canadice grapevines; 1000 ppm soil drench 2 days after warming, evaluated 17 days after warming
  Average number of broken buds per vine: 1.7
Canadice grapevines; 1000 ppm soil drench 2 days after warming, evaluated 18 days after warming
  Average number of broken buds per vine: 1.7
Canadice grapevines; [7]
  Average number of broken buds per vine: 0.2
Canadice grapevines; [8]
  Average number of broken buds per vine: 0.7
Canadice grapevines; [9]
  Average number of broken buds per vine: 1.2
Canadice grapevines; [10]
  Average number of broken buds per vine: 1.7
Canadice grapevines; 1000 ppm soil drench 6 days after warming, evaluated 17 days after warming
  Average number of broken buds per vine: 2.3
Canadice grapevines; 1000 ppm soil drench 6 days after warming, evaluated 18 days after warming
  Average number of broken buds per vine: 2.5
Canadice grapevines; [11]
  Average number of broken buds per vine: 0.5
Canadice grapevines; [12]
  Average number of broken buds per vine: 1.8
Canadice grapevines; [13]
  Average number of broken buds per vine: 2.3
Canadice grapevines; [14]
  Average number of broken buds per vine: 2.3
Canadice grapevines; 1000 ppm soil drench 10 days after warming, evaluated 17 days after warming
  Average number of broken buds per vine: 2.3
Canadice grapevines; 1000 ppm soil drench 10 days after warming, evaluated 18 days after warming
  Average number of broken buds per vine: 2.7
Perennial plant
  Effect on bud break: no appreciable effect on bud break
Concord grapevines; 6 days after warming
  Average number of broken buds per vine: 0.2
Concord grapevines; 7 days after warming
  Average number of broken buds per vine: 0.2
Concord grapevines; 8 days after warming
  Average number of broken buds per vine: 0.8
Concord grapevines; 11 days after warming
  Average number of broken buds per vine: 2.8
Concord grapevines; 12 days after warming
  Average number of broken buds per vine: 3.2
Concord grapevines; 13 days after warming
  Average number of broken buds per vine: 3.8
Concord grapevines; 14 days after warming
  Average number of broken buds per vine: 4.8
Concord grapevines; 15 days after warming
  Average number of broken buds per vine: 5.3
Concord grapevines; 19 days after warming
  Average number of broken buds per vine: 7.0
Concord grapevines; 20 days after warming
  Average number of broken buds per vine: 7.0
Concord grapevines; repeated spray application during the bud break period
  Effect on average number of broken buds over time: not significantly impacted
PF-11 nectarine trees [2]
  Percentage of broken floral buds: 78 Percentage
